Reference: patent US9840495B2, “Oxindole derivatives carrying a piperidyl-substituted azetidinyl substituent and use thereof for treating vasopressine-related diseases” (AbbVie Deutschland GmbH & Co. KG, priority 2013, dated 2017)
Counter-ions that a name gives are not always drawn.

Legend:
[1] = molecular target: T1, human vasopressin V1b receptor (Homo sapiens, UniProt P47901); assay: biochemical
T1 sequence (P47901 1-424): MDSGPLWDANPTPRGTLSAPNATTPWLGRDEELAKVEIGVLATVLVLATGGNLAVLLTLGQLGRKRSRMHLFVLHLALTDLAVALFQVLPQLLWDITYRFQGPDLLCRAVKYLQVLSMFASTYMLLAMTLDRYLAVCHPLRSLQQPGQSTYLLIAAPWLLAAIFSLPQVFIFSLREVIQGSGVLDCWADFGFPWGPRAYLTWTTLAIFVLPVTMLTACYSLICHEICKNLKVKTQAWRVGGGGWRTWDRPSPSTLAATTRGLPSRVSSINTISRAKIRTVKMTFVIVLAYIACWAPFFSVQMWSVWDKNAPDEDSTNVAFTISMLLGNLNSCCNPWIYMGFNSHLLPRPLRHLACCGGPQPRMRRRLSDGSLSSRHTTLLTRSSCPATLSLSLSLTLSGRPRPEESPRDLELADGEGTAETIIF

[2] = molecular target: human vasopressin V1a receptor (Homo sapiens, UniProt P37288); assay: Vasopressin V1a receptor binding assay (125I-AVP displacement, CHO-K1 membranes); details: selectivity quotient, human V1a vs human V1b receptor binding
human vasopressin V1a receptor, sequence (P37288 whole entry): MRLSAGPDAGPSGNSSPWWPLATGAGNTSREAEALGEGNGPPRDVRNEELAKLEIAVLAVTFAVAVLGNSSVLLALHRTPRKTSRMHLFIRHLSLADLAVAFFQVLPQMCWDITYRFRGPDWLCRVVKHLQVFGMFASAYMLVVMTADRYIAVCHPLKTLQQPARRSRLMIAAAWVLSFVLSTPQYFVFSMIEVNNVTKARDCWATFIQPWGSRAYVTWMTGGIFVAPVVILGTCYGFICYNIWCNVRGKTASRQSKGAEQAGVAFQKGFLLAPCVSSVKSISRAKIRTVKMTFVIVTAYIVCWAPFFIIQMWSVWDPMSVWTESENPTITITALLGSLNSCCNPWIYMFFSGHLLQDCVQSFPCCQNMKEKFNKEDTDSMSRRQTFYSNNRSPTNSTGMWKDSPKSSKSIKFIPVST

| Ki [1] | Ki(h-V1a)/Ki(h-V1b) [2] | SMILES |
| --- | --- | --- |
| < 1 nM | ++ (25-75) | CCOc1ncccc1[C@]1(NC(=O)N2CC(N3CCC(N4CCOCC4)CC3)C2)C(=O)N(S(=O)(=O)c2ccc(OC)cc2OC)c2cc(F)c(F)cc21 [Example 8, (S)—N-(1-((2,4-Dimethoxyphenyl)sulfonyl)-3-(2-ethoxypyridin-3-yl)-5,6-difluoro-2-oxoindolin-3-yl)-3-(4-morpholinopiperidin-1-yl)azetidine-1-carboxamide] |
| 1 to 10 nM | + (10-<25) | COc1ccccc1S(=O)(=O)N1C(=O)[C@@](NC(=O)N2CC(N3CCC(N(C)C4COC4)CC3)C2)(c2cccnc2OC)c2cc(C#N)ccc21 [Example 29, (S)—N-(5-Cyano-1-((2-methoxyphenyl)sulfonyl)-3-(2-methoxypyridin-3-yl)-2-oxoindolin-3-yl)-3-(4-(methyl(oxetan-3-yl)amino)piperidin-1-yl)azetidine-1-carboxamide] |
| 10 to 100 nM | +++ (>75) | CCOc1ncccc1[C@]1(NC(=O)N2CC(N3CCC(N4CCCO4)CC3)C2)C(=O)N(S(=O)(=O)c2ccc(OC)cc2OC)c2ccc(C#N)cc21 [Example 17, (S)—N-(5-Cyano-1-((2,4-dimethoxyphenyl)sulfonyl)-3-(2-ethoxypyridin-3-yl)-2-oxoindolin-3-yl)-3-(4-(isoxazolidin-2-yl)piperidin-1-yl)azetidine-1-carboxamide] |
| 1 to 10 nM | + (10-<25) | COc1ncccc1[C@]1(NC(=O)N2CC(N3CCC(N(C)C4COC4)CC3)C2)C(=O)N(S(=O)(=O)c2ccc(F)cc2)c2ccc(C#N)cc21 [Example 31, (S)—N-(5-Cyano-1-((4-fluorophenyl)sulfonyl)-3-(2-methoxypyridin-3-yl)-2-oxoindolin-3-yl)-3-(4-(methyl(oxetan-3-yl)amino)piperidin-1-yl)azetidine-1-carboxamide] |
| 1 to 10 nM | +++ (>75) | CCOc1ncccc1[C@]1(NC(=O)N2CC(N3CCC(N4CCOCC4)CC3)C2)C(=O)N(S(=O)(=O)c2ccc(F)cc2OC)c2ccc(C#N)cc21 [Example 28, (S)—N-(5-cyano-3-(2-ethoxypyridin-3-yl)-1-((4-fluoro-2-methoxyphenyl)sulfonyl)-2-oxoindolin-3-yl)-3-(4-morpholinopiperidin-1-yl)azetidine-1-carboxamide] |
| 1 to 10 nM | + (10-<25) | COc1ccc(S(=O)(=O)N2C(=O)[C@@](NC(=O)N3CC(N4CCC(N(C)C5COC5)CC4)C3)(c3cccnc3OC)c3cc(C#N)ccc32)c(F)c1 [Example 32, (S)—N-(5-Cyano-1-((2-fluoro-4-methoxyphenyl)sulfonyl)-3-(2-methoxypyridin-3-yl)-2-oxoindolin-3-yl)-3-(4-(methyl(oxetan-3-yl)amino)piperidin-1-yl)azetidine-1-carboxamide] |
| < 1 nM | +++ (>75) | CCOc1ncccc1[C@]1(NC(=O)N2CC(N3CCC(N4CCOCC4)CC3)C2)C(=O)N(S(=O)(=O)c2ccc(OC)cc2F)c2ccc(C#N)cc21 [Example 27, (S)—N-(5-cyano-3-(2-ethoxypyridin-3-yl)-1-((2-fluoro-4-methoxyphenyl)sulfonyl)-2-oxoindolin-3-yl)-3-(4-morpholinopiperidin-1-yl)azetidine-1-carboxamide] |
| 1 to 10 nM | +++ (>75) | CCOc1ncccc1[C@]1(NC(=O)N2CC(N3CCC(N4CCOCC4)CC3)C2)C(=O)N(S(=O)(=O)c2cc(F)c(OC)cc2OC)c2ccc(C#N)cc21 [Example 24, (S)—N-(5-Cyano-3-(2-ethoxypyridin-3-yl)-1-((5-fluoro-2,4-dimethoxyphenyl)sulfonyl)-2-oxoindolin-3-yl)-3-(4-morpholinopiperidin-1-yl)azetidine-1-carboxamide] |
| < 1 nM | + (10-<25) | COc1ccc(S(=O)(=O)N2C(=O)[C@@](NC(=O)N3CC(N4CCC(N(C)C5CCOCC5)CC4)C3)(c3cccnc3OC)c3cc(C#N)ccc32)c(OC)c1 [Example 21, (S)—N-(5-Cyano-1-((2,4-dimethoxyphenyl)sulfonyl)-3-(2-methoxypyridin-3-yl)-2-oxoindolin-3-yl)-3-(4-(methyl(tetrahydro-2H-pyran-4-yl)amino)piperidin-1-yl)azetidine-1-carboxamide] |
| 1 to 10 nM | + (10-<25) | CCOc1ncccc1[C@]1(NC(=O)N2CC(N3CCC(N4CCOCC4)CC3)C2)C(=O)N(S(=O)(=O)c2ccc(OC)cn2)c2ccc(C#N)cc21 [Example 36, (S)—N-(5-Cyano-3-(2-ethoxypyridin-3-yl)-1-((5-methoxypyridin-2-yl)sulfonyl)-2-oxoindolin-3-yl)-3-(4-morpholinopiperidin-1-yl)azetidine-1-carboxamide×TFA] |
| < 1 nM | +++ (>75) | CCOc1ncccc1[C@]1(NC(=O)N2CC(N3CCC(N4CCOCC4)CC3)C2)C(=O)N(S(=O)(=O)c2ccc(OC)cc2OC)c2ccc(C#N)cc21 [Example 1, (S)—N-(5-cyano-1-((2,4-dimethoxyphenyl)sulfonyl)-3-(2-ethoxypyridin-3-yl)-2-oxoindolin-3-yl)-3-(4-morpholinopiperidin-1-yl)azetidine-1-carboxamide] |
| 1 to 10 nM | ++ (25-75) | COc1ccc(S(=O)(=O)N2C(=O)[C@@](NC(=O)N3CC(N4CCC(N(C)C5COC5)CC4)C3)(c3cccnc3OC)c3cc(C#N)ccc32)cc1 [Example 35, (S)—N-(5-cyano-1-((4-methoxyphenyl)sulfonyl)-3-(2-methoxypyridin-3-yl)-2-oxoindolin-3-yl)-3-(4-(methyl(oxetan-3-yl)amino)piperidin-1-yl)azetidine-1-carboxamide] |
| < 1 nM |  | CCOc1ncccc1[C@]1(NC(=O)N2CC(N3CCC(N4CCOCC4)CC3)C2)C(=O)N(S(=O)(=O)c2ccc(OC)cc2OC)c2ccc(Cl)cc21 [Example 13, (S)—N-(5-Chloro-1-((2,4-dimethoxyphenyl)sulfonyl)-3-(2-ethoxypyridin-3-yl)-2-oxoindolin-3-yl)-3-(4-morpholinopiperidin-1-yl)azetidine-1-carboxamide] |
| < 1 nM | +++ (>75) | CCOc1ncccc1[C@]1(NC(=O)N2CC(N3CCC(N4CCC(O)CC4)CC3)C2)C(=O)N(S(=O)(=O)c2ccc(OC)cc2OC)c2ccc(C#N)cc21 [Example 44, (S)—N-(5-Cyano-1-((2,4-dimethoxyphenyl)sulfonyl)-3-(2-ethoxypyridin-3-yl)-2-oxoindolin-3-yl)-3-(4-hydroxy-[1,4′-bipiperidin]-1′-yl)azetidine-1-carboxamide] |
| 1 to 10 nM | +++ (>75) | CCOc1ncccc1[C@]1(NC(=O)N2CC(N3CCC(N4CCC5(CC4)COC5)CC3)C2)C(=O)N(S(=O)(=O)c2ccc(OC)cc2OC)c2ccc(C#N)cc21 [Example 6, (S)-3-(4-(2-Oxa-7-Azaspiro[3.5]nonan-7-yl)piperidin-1-yl)-N-(5-cyano-1-((2,4-dimethoxyphenyl)sulfonyl)-3-(2-ethoxypyridin-3-yl)-2-oxoindolin-3-yl)azetidine-1-carboxamide] |
| 1 to 10 nM | +++ (>75) | CCOc1ncccc1[C@]1(NC(=O)N2CC(N3CCC(N4CCOCC4)CC3)C2)C(=O)N(S(=O)(=O)c2ccccc2OC)c2ccc(C#N)cc21 [Example 37, (S)—N-(5-Cyano-3-(2-ethoxypyridin-3-yl)-1-((2-methoxyphenyl)sulfonyl)-2-oxoindolin-3-yl)-3-(4-morpholinopiperidin-1-yl)azetidine-1-carboxamide] |
| 1 to 10 nM | +++ (>75) | CCOc1ncccc1[C@]1(NC(=O)N2CC(N3CCC(N(CC)C4COC4)CC3)C2)C(=O)N(S(=O)(=O)c2ccc(OC)cc2OC)c2ccc(C#N)cc21 [Example 5, (S)—N-(5-Cyano-1-((2,4-dimethoxyphenyl)sulfonyl)-3-(2-ethoxypyridin-3-yl)-2-oxoindolin-3-yl)-3-(4-(ethyl(oxetan-3-yl)amino)piperidin-1-yl)azetidine-1-carboxamide] |
| 10 to 100 nM | + (10-<25) | COc1ccc(S(=O)(=O)N2C(=O)[C@@](NC(=O)N3CC(N4CCC(N(C(C)C)C5COC5)CC4)C3)(c3cccnc3OC)c3cc(C#N)ccc32)c(OC)c1 [Example 38, (S)—N-(5-Cyano-1-((2,4-dimethoxyphenyl)sulfonyl)-3-(2-methoxypyridin-3-yl)-2-oxoindolin-3-yl)-3-(4-(isopropyl(oxetan-3-yl)amino)piperidin-1-yl)azetidine-1-carboxamide] |
| 1 to 10 nM |  | CCOc1ncccc1[C@]1(NC(=O)N2CC(N3CCC(N4CCOCC4)CC3)C2)C(=O)N(S(=O)(=O)c2ccc(F)cc2F)c2ccc(C#N)cc21 [Example 26, (S)—N-(5-Cyano-1-((2,4-difluorophenyl)sulfonyl)-3-(2-ethoxypyridin-3-yl)-2-oxoindolin-3-yl)-3-(4-morpholinopiperidin-1-yl)azetidine-1-carboxamide] |
| < 1 nM |  | CCOc1ncccc1[C@]1(NC(=O)N2CC(N3CCC(N(C)C4COC4)CC3)C2)C(=O)N(S(=O)(=O)c2ccc(OC)cc2OC)c2ccc(Cl)cc21 [Example 14, (S)—N-(5-Chloro-1-((2,4-dimethoxyphenyl)sulfonyl)-3-(2-ethoxypyridin-3-yl)-2-oxoindolin-3-yl)-3-(4-(methyl(oxetan-3-yl)amino)piperidin-1-yl)azetidine-1-carboxamide] |
